Format in all cases: cell-based
For one assay, the target named is T1, HLA-A2 (Homo sapiens, UniProt P04439, D140Y/D185E/D98H/E176V/E277Q/G131W/G231S/I119V/I121R/I166T/I218V/L300P/L318F/N151K/N90K/P208A/P217A/Q86G/Q94H/R138H/R169H/T345S).
T1 construct: endogenous in cells; host or cells: T2 cells
The assay is described as follows: VCX118 peptide HLA-A2 binding assay (HLA-A2 stability analysis on T2 cells). The conditions noted are these: T2 cells pulsed with different concentrations of peptide. The method, then: Different concentrations of VCX118 peptide were pulsed to T2 cells, and the HLA-A2 stability analysis was performed to detect the VCX118 peptide binding ability. VCX54, M26 and M27 peptide were used as control.

The test system of assay [1] is VCX54 TCR-T cells. The assay is described as follows: VCX118 peptide cross reaction detection (peptide titration on T2 cells, ICS). The conditions noted are these: T2 cells pulsed with high concentration of peptide. The method, then:
For VCX118 peptide cross reaction detection, different concentration of VCX118 peptide were used to pulse T2 cells and then co-cultured with VCX54 TCR-T cells. […] M26 peptide was used as a negative control (FIG. 2).
(§1) Intracellular cytokine staining (ICS) assay: The T cells were incubated with target cells at 10:1 ration in the presence of brefeldin A (BFA) at 37° C. overnight. After co-culturing, the T cells were harvested and washed. The cells were stained with flow antibody anti surface marker first. After that, the cells were washed and fixed with Fix Buffer and then were permeabilized using Permeabilizing Solution (eBioscience). Permeabilized cells are then stained with intracellular cytokine flow antibody. Finally, the level of cytokine producing in the cells was analyzed using FACS.

Assay [2] relates to VCX54 TCR-T cells. As to the kind of experiment: Overlap peptide library screening: peptide-pulsed T2 cells co-cultured with VCX54 TCR-T, ICS of activation markers. The conditions noted are these: peptide pulsed to T2 cells, overnight co-culture. The method, then: Overlap peptide library screening was performed for the recognition target peptide of VCX54 TCR-T cells (FIG. 1). The 9-mer peptide with 8 amino acid overlap peptide library covering the whole length of VCX3A protein was screened for the VCX54 TCR-T cell recognized target. The peptide was pulsed to T2 cell one by one and co-cultured with VCX54 TCR-T. After overnight culturing, the activated marker of T cells such as CD137, CD69, IFN-r and TNFa were detected using intracellular cytokine staining (ICS).
as §1

Assay [3] has as its system VCX54 TCR-T cells. The assay is described as follows: Peptide titration killing assay (calcein-AM quenching assay). The conditions noted are these: peptide-pulsed T2 cells labeled with Calcein-AM, high concentrations. An excerpt: Different concentrations of VCX118 peptide were pulsed to T2 cells, labeled with Calcein-AM, and co-cultured with VCX54 TCR-T cells. The calcein-AM quenching assay was used to detect VCX54 TCR-T killing ability in response to the antigen.

The subject of assay [4] is VCX54 TCR-T cells. As to the kind of experiment: VCX54 TCR-T recognition of longer peptides comprising VCX118 (ICS). The conditions noted are these: peptides pulsed to T2 cells, co-cultured with VCX54 TCR-T cells. The method, then:
Different length of peptides with VCX118 were pulsed to T2 cells and co-cultured with VCX54 TCR-T cells. The VCX118 peptide was used as a control.
as §1

Consider “SEVEEPLSQ (listed as Homo sapiens) [VCX118, 9-mer VCX/Y peptide shared with all VCX/Y family members]”, for which, in the assay with HLA-A2, the “binding ability to HLA-A2” value was “weak binding ability”. Besides, in the assay with VCX54 TCR-T cells [1], the “ICS response relative to VCX54 original peptide” value is “higher than the VCX54 original peptide” and the “cross recognition by VCX54 TCR-T (ICS)” value was “cross recognized by VCX54 TCR-T”. For the same substance, the “induction of response of VCX54 TCR-T (CD137, CD69, IFN-r, TNFa by ICS)” value with VCX54 TCR-T cells [2] is recorded as “also be able to induce the response of VCX54 TCR-T cells”. Further, the “VCX54 TCR-T killing response relative to VCX54 peptide” value in the assay on VCX54 TCR-T cells [3] is on record as “higher than the VCX54 peptide”. For the same substance, the “recognition by VCX54 TCR-T cells (ICS)” value in the assay on VCX54 TCR-T cells [4] was “only recognized the VCX118 peptide”.
Regarding “VCX54: the target (original) 9-mer peptide of VCX3A recognized by VCX54 TCR-T cells; sequence not printed (GAATKMAAV) [reference compound]”, the “induction of response of VCX54 TCR-T (CD137, CD69, IFN-r, TNFa by ICS)” value in the assay with VCX54 TCR-T cells [2] was “able to induce the response of VCX54 TCR-T”.

The values are drawn from patent publication US20220347279A1, “VCX/Y PEPTIDES AND USE THEREOF” (BOARD OF REGENTS, THE UNIVERSITY OF TEXAS SYSTEM, priority 2019, published 2022).
